Test results: patent US8785638B2, “Thieno [2, 3-B] pyridine derivatives as viral replication inhibitors” (Katholieke Universiteit Leuven, priority 2009, dated 2014)

Columns and labels:
[1] = molecular target: LEDGF/p75-HIV-1 integrase interaction (Human immunodeficiency virus type 1 group M subtype B (isolate HXB2) (HIV-1), UniProt P04585); assay: AlphaScreen assay of LEDGF-integrase interaction inhibition; assay type: binding; details: His6-tagged integrase 300 nM, flag-LEDGF/p75 100 nM; read-out: Alphascreen IC50
Procedure: Alphascreen Assay to Measure the LEDGF-Integrase Interaction Inhibitory Activity of Compounds of the Invention
The AlphaScreen assay was performed according to the manufacturer's protocol (Perkin Elmer, Benelux). Reactions were performed in 25 μl final volume in 384-well Optiwell™ microtiter plates (Perkin Elmer). The reaction buffer contained 25 mM Tris-HCl (pH 7.4), 150 mM NaCl, 1 mM MgCl2, 0.01% (v/v) Tween-20 and 0.1% (w/v) bovine serum albumin. His6-tagged integrase (300 nM final concentration) was incubated with the compounds for 30 min at 4° C. The compounds were added at varying concentrations spanning a wide range from 0.1 up to 100 μM. Afterwards 100 nM flag-LEDGF/p75 was added and incubation was prolonged for an additional hour at 4° C. Subsequently 5 μl of Ni-chelate-coated acceptor beads and 5 μl anti-flag donor beads were added to a final concentration of 20 μg/ml of both beads. Proteins and beads were incubated for 1 h at 30° C. in order to allow association to occur. Exposure of the reaction to direct light was omitted as much as possible and the emission of light from the acceptor beads was measured in the EnVision plate reader (Perkin Elmer, Benelux) and analyzed using the EnVision manager software. IN/DNA binding was analyzed in a similar setting using His6-tagged integrase (1 μM final concentration) and an oligodeoxynucleotide mimicking the IN ELISA oligonucleotide substrate (30 nM final concentration). Counterscreens with JPO2 or PogZ, respectively, were essentially performed as described previously.
His6-tagged HIV-1 integrase, 3xflag-tagged LEDGF/p75, MBP-JPO2 and MBP-PogZ were purified for AlphaScreen applications as described previously 23,25,56.

[2] = tested on: HIV-1 (IIIB), HIV-1 (NL4.3); assay: microbe, parasite or virus in culture; assay type: cell-based; details: for EC50: Human immunodeficiency virus 1, IIIB, MT4, MT-4 cells, 50% protection against HIV-induced cytopathogenic effect, MTT; for SI: selectivity index, ratio of CC50 to EC50
Procedure: (§1) A rapid and automated assay procedure was used for the in vitro evaluation of anti-HIV agents. An HTLV-1 transformed T4-cell line MT-4, which was previously shown to be highly susceptible to and permissive for HIV infection, served as the target cell line. Inhibition of the HIV-induced cytopathogenic effect was used as the end point. The viabitlity of both HIV- and mock-infected cells was assessed spectrophotometrically via in situ reduction of 3-(4,5-dimethylthiazol-2-yl)-2,5-diphenyltetrazolium bromide (MTT). The 50% cytotoxic concentration (CC50 in μM or μg/ml) was defined as the concentration of compound that reduced the absorbance of the mock-infected control sample by 50%. The percent protection achieved by the compound in HIV-infected cells was calculated by the following formula:
(§2) [formula] whereby (ODT)HIV is the optical density measured with a given concentration of the test compound in HIV-infected cells; (ODC)HIV is the optical density measured for the control untreated HIV-infected cells; (ODC)MOCK is the optical density measured for the control untreated mock-infected cells; all optical density values were determined at 540 nm. The dose achieving 50% protection according to the above formula was defined as the 50% inhibitory concentration (EC50 in μM or μg/ml). The ratio of CC50 to EC50 was defined as the selectivity index (SI). […] Examples of inhibition of cell proliferation by particular compounds of the invention can be found by looking at the respective CC50 values in the MT-4 cell line. Cells:
(§3) MT-4 cells (Miyoshi et al., 1982) were grown and maintained in RPMI 1640 medium supplemented with 10% heat-inactivated fetal calf serum, 2 mM I-glutamine, 0.1% sodium bicarbonate, and 20 μg of gentamicin per ml. Alternatively, the MT-4 cells may also be grown in RPMI 1640 medium supplemented with 10% FCS and 20 μg/ml of gentamicin (RPMI-complete).
The HIV-1 (IIIB) strain (Popovic et al., 1984) as well as the HIV-1 (NL4.3) strain (Adachi et al., J. Virol. 59, 284-291 (1986)) were used.

[3] = Cytotoxicity in mock-infected MT-4 cells (MTT); assay type: cell-based; details: human, 50% cytotoxic concentration
Procedure: as §1, §2, §3

Compound	IC50 [1] [µM]	EC50 [2] [µM]	SI [2]	CC50 [3] [µM]
CCCC(C(=O)O)c1c(C)nc2sc3c(c2c1-c1ccc(C)cc1)CCC3 (stereo not drawn) [Cpd 100, 2-[2-Methyl-4-p-tolyl-6,7-dihydro-5H-cyclopenta[4,5]thieno[2,3-b]pyridin-3-yl]pentanoic acid]	6.61	1.69	72	121
Cc1ccc(-c2c(CC(=O)O)c(C)nc3sc4c(c23)CCC4)cc1 [Cpd 101, [2-Methyl-4-p-tolyl-6,7-dihydro-5H-cyclopenta[4,5]thieno[2,3-b]pyridin-3-yl]acetic acid]	55.3	64.1	>2	> 125
CCc1sc2nc(C)c(CC(=O)O)c(-c3ccc(C)cc3)c2c1C [Cpd 105, (2-Ethyl-3,6-dimethyl-4-p-tolylthieno[2,3-b]pyridin-5-yl)acetic acid]	64.3	> 62.7	–	62.7
Cc1ccc(-c2c(CC(=O)O)c(C)nc3sc(C)cc23)cc1 [Cpd 106, (2,6-Dimethyl-4-p-tolylthieno[2,3-b]pyridin-5-yl)acetic acid]	53.9	96.4	>1	> 125
CCCC(C(=O)O)c1c(C)nc2sc3c(c2c1-c1ccccc1)CCC3 (stereo not drawn) [Cpd 107, 2-[2-Methyl-4-phenyl-6,7-dihydro-5H-cyclopenta[4,5]thieno[2,3-b]pyridin-3-yl]pentanoic acid]	34.7	13.2	8	75.7
CCCC(C(=O)O)c1c(C)nc2sc(C)c(C)c2c1-c1ccc(C)cc1 (stereo not drawn) [Cpd 108, 2-(2,3,6-Trimethyl-4-p-tolylthieno[2,3-b]pyridin-5-yl)pentanoic acid]	4.48	2.19	27	57.9
CCCC(C(=O)O)c1c(C)nc2sc(C)c(CC)c2c1-c1ccc(C)cc1 (stereo not drawn) [Cpd 109, 2-(3-Ethyl-2,6-dimethyl-4-p-tolylthieno[2,3-b]pyridin-5-yl)pentanoic acid]	6.81	2.22	26	57.9
CCCC(C(=O)O)c1c(C)nc2sc(C)cc2c1-c1ccc(C)cc1 (stereo not drawn) [Cpd 110, 2-(2,6-Dimethyl-4-p-tolylthieno[2,3-b]pyridin-5-yl)pentanoic acid]	4.31	0.76	95	72.2
CCCC(C(=O)O)c1c(C)nc2sc(CC)c(C)c2c1-c1ccc(C)cc1 (stereo not drawn) [Cpd 111, 2-(2-Ethyl-3,6-dimethyl-4-p-tolylthieno[2,3-b]pyridin-5-yl)pentanoic acid]	–	1.28	43	54.4
CCCC(C(=O)O)c1c(C)nc2sc3c(c2c1-c1ccc(Cl)cc1)CCC3 (stereo not drawn) [Cpd 112, 2-[2-Methyl-4-(4-chlorophenyl)-6,7-dihydro-5H-cyclopenta[4,5]thieno[2,3-b]pyridin-3-yl]pentanoic acid]	1.11	0.803	84	67.7
CCCC(C(=O)O)c1c(C)nc2sc3c(c2c1-c1ccc(C)cc1)CCCC3 (stereo not drawn) [Cpd 113, 2-[2-Methyl-4-p-tolyl-5,6,7,8-tetrahydro[1]benzothieno[2,3-b]pyridin-3-yl]pentanoic acid]	0.75	0.44	183	80.6
CCC[C@H](C(=O)O)c1c(C)nc2sc3c(c2c1-c1ccc(C)cc1)CCCC3 [Cpd 114, (2S)-[2-Methyl-4-p-tolyl-5,6,7,8-tetrahydro[1]benzothieno[2,3-b]pyridin-3-yl]pentanoic acid]	< 1	0.58	217	126
CCC[C@@H](C(=O)O)c1c(C)nc2sc3c(c2c1-c1ccc(C)cc1)CCCC3 [Cpd 115, (2R)-[2-Methyl-4-p-tolyl-5,6,7,8-tetrahydro[1]benzothieno[2,3-b]pyridin-3-yl]pentanoic acid]	17.6	5.03	26	131
CCCC(C(=O)O)c1c(C)nc2sc3c(c2c1-c1ccc(C(F)(F)F)cc1)CCC3 (stereo not drawn) [Cpd 116, 2-[2-Methyl-4-(4-trifluoromethylphenyl)-6,7-dihydro-5H-cyclopenta[4,5]thieno[2,3-b]pyridin-3-yl]pentanoic acid]	0.62	1.21	12	14.7
CCCC(C(=O)O)c1c(C)nc2sc3c(c2c1-c1ccc(CC)cc1)CCC3 (stereo not drawn) [Cpd 117, 2-[2-Methyl-4-(4-ethylphenyl)-6,7-dihydro-5H-cyclopenta[4,5]thieno[2,3-b]pyridin-3-yl]pentanoic acid]	0.78	0.53	107	54.3
CCCC(C(=O)O)c1c(C)nc2scc(C)c2c1-c1ccc(C)cc1 (stereo not drawn) [Cpd 118, 2-(3,6-Dimethyl-4-p-tolylthieno[2,3-b]pyridin-5-yl)pentanoic acid]	23.4	> 50.2	–	50.2
CCCC(C(=O)O)c1c(C)nc2sccc2c1-c1ccc(C)cc1 (stereo not drawn) [Cpd 119, 2-(6-Methyl-4-p-tolylthieno[2,3-b]pyridin-5-yl)pentanoic acid]	2.66	31.6	4	109
CCCC(C(=O)O)c1c(C)nc2sc3ccccc3c2c1-c1ccc(C)cc1 (stereo not drawn) [Cpd 120, 2-[2-Methyl-4-p-tolylbenzo[4,5]thieno[2,3-b]pyridin-3-yl]pentanoic acid]	2.72	1.51	67	101
COCCC(C(=O)O)c1c(C)nc2sc3c(c2c1-c1ccc(C)cc1)CCC3 (stereo not drawn) [Cpd 122, 2-[2-methyl-4-(p-tolyl)-6,7-dihydro-5H-cyclopenta[4,5]thieno[2,3-b]pyridin-3-yl]-4-O-methoxy-butanoic acid]	3.2	5.3	15	79.8
C=C(C(=O)O)c1c(C)nc2sc3c(c2c1-c1ccc(C)cc1)CCC3 [Cpd 124, 2-[2-methyl-4-p-tolyl-6,7-dihydro-5H-cyclopenta[4,5]thieno[2,3-b]pyridin-3-yl]acrylic acid]	41	> 117	–	117
COCC(C(=O)O)c1c(C)nc2sc3c(c2c1-c1ccc(C)cc1)CCC3 (stereo not drawn) [Cpd 125, 2-[2-Methyl-4-(p-tolyl)-6,7-dihydro-5H-cyclopenta[4,5]thieno[2,3-b]pyridin-3-yl]-3-methoxypropanoic acid]	77	66.5	>2	> 125
CCCC(C(=O)O)c1c(-c2ccccc2)nc2sc3c(c2c1-c1ccc(C)cc1)CCC3 (stereo not drawn) [Cpd 126, 2-[2-phenyl-4-p-tolyl-6,7-dihydro-5H-cyclopenta[4,5]thieno[2,3-b]pyridin-3-yl]pentanoic acid]	56.3	> 30.1	–	30.1
CCCC(C(=O)O)c1c(C)nc2sc3c(c2c1-c1ccc(C)cc1)CC(C)C3 (stereo not drawn) [Cpd 127, 2-[2-methyl-6-methyl-4-p-tolyl-6,7-dihydro-5H-cyclopenta[4,5]thieno[2,3-b]pyridin-3-yl]pentanoic acid]	2.85	0.79	105	82.9
